In this assay the test system is Bacillus megaterium. Description: Phosphate solubilization assay with Bacillus megaterium (liquid NBRIP, malachite green). The class given is cell-based. The settings on record: 25 ug/mL (solvent 50% acetone), NBRIP, 72 h. As for the experimental part: In some aspects, a compound disclosed herein, e.g., AB09, stimulates bacterial phosphate solubilization activity. […] Cultures of B. megaterium were grown in media containing only insoluble phosphorus with and without a compound such as AB09. At the start of the experiment, there was no detectable difference of orthophosphate levels in the growth media alone and media supplemented with B. megaterium and/or AB09. Orthophosphate was measured after 72 hours of bacterial growth. Specifically, A 5 mL culture of B. megaterium was seeded from a single colony into Nutrient Broth (NB) and grown overnight in a 30° C. shaker. The cell pellet was collected by centrifugation, washed twice and resuspended in water. The concentration of B. megaterium was measured using a Nanodrop OD600 reading. B. megaterium was inoculated into liquid NBRIP media, which contains insoluble tricalcium phosphate as its sole phosphorus source. The final concentration of B. megaterium in the NBRIP media was OD600=0.02 ([…]). NBRIP media was supplemented with ML in a 1% DMSO solution to a final concentration of 100 ug/ML or 1% DMSO (both were filter sterilized through a 0.2 uM filter). Cell counts at the start of the experiment (0 hours) and at 72 hours post inoculation were measured using dilution plating. At the experiment start and after 72 hours of growth, 1 mL of culture was collected from the culture tubes. The supernatant was collected by centrifugation (5 min at 13,000 rpm). The cleared supernatant was diluted […] in molecular grade water and used for orthophosphate analysis. The remaining 4 mL of supernatant were collected by centrifugation for pH readings. Orthophosphate was measured using the malachite-green phosphate method (BioAssay Systems Malachite Green Phosphate Assay Kit Catalog No: POMG-25H). Briefly, the sample is mixed with a solution of Malachite Green and molybdate, which forms a green complex with free orthophosphate from the sample. Data are quantified on a plate reader at 620 nm. Unknown samples were run with a standard curve of known concentrations of orthophosphate. […] Phosphate solubilization in NBRIP culture media is shown at experiment start (0 h) and after 72 hours of shaking at 30° C. The left axis corresponds to box plots and whisker plots of the concentration of solubilized phosphate in the bacterial supernatant. The right axis corresponds to the pH of the supernatant. n=7 culture tubes for each B. megaterium with and without ML, and n=3 culture tubes for no bacteria with and without AB09. The malachite green phosphate assay was performed in triplicate. […] In some instances, disclosed herein are experimental culture tubes of B. megaterium growing in NBRIP without ML (AB09; leftmost two tubes) and with 100 ug/mL ML (right three tubes).
A strain of Bacillus megaterium (B. megaterium) was isolated from Iowa field soil and confirmed its ability to solubilize phosphorus by observing a cleared zone (or halo) around B. megaterium colonies when grown on solid media (NBRIP+Agar) containing only in insoluble form of phosphorus, Ca3(PO4)2. Cultures of B. megaterium were then grown in liquid NBRIP (containing only insoluble Ca3(PO4)2) with and without AB09. The growth media supernatant was analyzed for orthophosphate at the start of the experiment (0 h) and after 72 hours of growth by the malachite green quantification method.
FIG. 1A illustrates phosphate solubilization in NBRIP culture media at experiment start (0 h) and after 72 hours of shaking at 30° C. The left axis corresponds to box plots and whisker plots of the concentration of available phosphate (orthophosphate) in the bacterial supernatant. […] The malachite green phosphate assay was performed in triplicate. FIG. 1B illustrates an example of experimental culture tubes of B. megaterium growing in NBRIP without AB09 (leftmost two tubes) and with 100 ug/mL AB09 (right three tubes). […]
As for `CC1=C(C)C(Oc2c(C)occc2=O)OC1=O` (stereo not drawn) [SA-002], the “phosphate solubilization effect compared to the original AB09 molecule” value is “enhanced phosphate solubilization effect”.

Regarding `CC1=CC(Oc2cc(C)oc(=O)c2)OC1=O` (stereo not drawn) [SA-004], the “phosphate solubilization effect compared to the original AB09 molecule” value is recorded as “enhanced phosphate solubilization effect”.

Consider `CCc1occc(=O)c1OC1C=C(C)C(=O)O1` (stereo not drawn) [SA-005], for which the “phosphate solubilization effect compared to the original AB09 molecule” value is on record as “did not differ from AB09”.

The record behind these values is US12239132B2, “Compounds and methods for increasing soil nutrient availability” (SOUND AGRICULTURE COMPANY, priority 2018, dated 2025).
